Non-standard residues stand in square brackets, D forms with d. Residues, ends and D or L forms follow the SMILES beside them. *: point of attachment. Sta = CC(C)C[C@H](N)[C@@H](O)CC(=O)O; X1 = c1ccc(CN2CCC(N*)CC2)cc1; Boc = CC(C)(C)OC(=O)*
Assays:
[1] = biological target: Renin (Sus scrofa); test: Compound was tested for inhibition of hog kidney renin; conditions: read-out: I50
[2] = biological target: T1, Renin (Homo sapiens, UniProt P00797); test: Compound was tested for inhibition of human kidney renin
T1 sequence (P00797 whole entry): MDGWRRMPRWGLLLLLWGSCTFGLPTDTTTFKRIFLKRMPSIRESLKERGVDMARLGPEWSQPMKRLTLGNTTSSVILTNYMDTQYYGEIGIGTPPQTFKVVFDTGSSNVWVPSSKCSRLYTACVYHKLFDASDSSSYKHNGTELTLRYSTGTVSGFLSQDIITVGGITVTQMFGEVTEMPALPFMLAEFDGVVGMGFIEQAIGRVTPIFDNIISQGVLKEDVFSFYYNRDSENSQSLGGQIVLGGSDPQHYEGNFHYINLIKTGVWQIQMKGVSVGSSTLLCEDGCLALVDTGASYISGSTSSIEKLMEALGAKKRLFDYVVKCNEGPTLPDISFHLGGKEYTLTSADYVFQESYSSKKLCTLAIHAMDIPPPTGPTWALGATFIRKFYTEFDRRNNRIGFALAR

[3] = biological target: T2, Renin (Homo sapiens) (UniProt P00797); test: (§1) Compound was tested for inhibition of human plasma renin; assay type: cell-free; conditions: concentration not given here
T2 sequence (whole entry): T1 sequence (P00797 whole entry)

[4] = biological target: T1, Renin; test: as §1; assay type: cell-free; conditions: read-out: I50

IC50 [1] [nM]	Ki [2] [nM]	inhibition [3] [%]	IC50 [4] [nM]	Structure (SMILES)
858	0.026	37	1000	CC(C)C[C@@H](CNCc1ccccc1)NC(=O)C[C@H](O)[C@H](CC(C)C)NC(=O)[C@H](Cc1ccccc1)NC(=O)[C@H](Cc1ccccc1)NC(=O)OC(C)(C)C
88	4.8	–	–	CC(C)C[C@H](NC(=O)C[C@H](O)[C@H](CC(C)C)NC(=O)[C@H](Cc1ccccc1)NC(=O)[C@H](Cc1ccccc1)NC(=O)OC(C)(C)C)C(=O)N[C@@H](Cc1ccccc1)C(N)=O (Boc-FF[Sta]LF-NH2)
269	0.064	–	25	CC(C)C[C@H](NC(=O)C[C@H](O)[C@H](CC(C)C)NC(=O)[C@H](Cc1c[nH]cn1)NC(=O)[C@H](Cc1ccccc1)NC(=O)OC(C)(C)C)C(=O)NC1CCN(Cc2ccccc2)CC1 (Boc-FH[Sta]L-X1)
